Data from US10703748B2, “Diazanaphthalen-3-yl carboxamides and preparation and use thereof” (Samumed, LLC, priority 2017, dated 2020).
Blank lines part the entries; values can stand above or below the molecule they belong to.

What was measured:
[1] = test system: SW480 colon carcinoma cells; assay: Cell viability assay (CellTiter-Glo); conditions: Homo sapiens; for EC50: SW480, 96 h; for inhibition at 10 µM: SW480, read-out: percent inhibition at 10 μM
IL-6 = IL-6 inhibition in LPS-stimulated human peripheral blood mononuclear cells (HTRF); conditions: Homo sapiens, PBMC; for EC50: 22 h; for inhibition at 10 µM: read-out: percentage in parentheses after EC50 >10
GSK3β kinase = GSK3β kinase (Homo sapiens, UniProt P49841); assay: GSK3β kinase activity (Ser/Thr 09 peptide Z-lyte FRET assay); format: biochemical; conditions: recombinant kinase, 46 μM ATP, one hour at room temperature; read-out: EC50
GSK3β kinase, sequence (P49841 whole entry): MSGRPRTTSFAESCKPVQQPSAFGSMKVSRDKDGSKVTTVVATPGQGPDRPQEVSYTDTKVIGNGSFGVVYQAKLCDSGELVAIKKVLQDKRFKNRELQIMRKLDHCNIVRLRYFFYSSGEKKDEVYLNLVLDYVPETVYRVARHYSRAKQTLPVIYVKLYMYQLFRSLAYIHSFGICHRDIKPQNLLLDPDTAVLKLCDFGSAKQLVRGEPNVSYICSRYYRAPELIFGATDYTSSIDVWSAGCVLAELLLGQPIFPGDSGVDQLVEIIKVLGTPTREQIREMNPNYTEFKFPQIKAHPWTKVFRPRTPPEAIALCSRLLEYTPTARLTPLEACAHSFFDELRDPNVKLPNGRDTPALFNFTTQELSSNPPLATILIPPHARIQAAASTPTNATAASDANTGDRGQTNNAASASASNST

[2] = test system: secreted cytokines TNFα, IL-6 and KC-GRO; assay: Secreted cytokines in Lipopolysaccharide-stimulated BV-2 cells (Table 9 does not say which cytokine); format: cell-based, mouse; conditions: Mus musculus, BV-2, 5 h; read-out: EC50
[3] = test system: Wnt-responsive Sp5-Luc reporter in SW480 colon carcinoma cells; assay: Screening assay for Wnt activity (Sp5-Luc reporter gene assay); conditions: Homo sapiens; for EC50: SW480; for inhibition at 10 µM: SW480, read-out: percent inhibition at 10 μM
DYRK1A kinase = DYRK1A kinase (Homo sapiens, UniProt Q13627); assay: DYRK1A kinase activity (Ser/Thr 18 peptide Z-lyte FRET assay); format: biochemical; conditions: recombinant DYRK1A, 30 μM ATP, one hour at room temperature;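 note: kinase activity read as coumarin/fluorescein emission ratio after development step, with unphosphorylated and phosphorylated peptide forms setting 0% and 100% controls, values from dose-response curves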
[4] = test system: α-smooth muscle actin (aSMA) positive LL29 cells; assay: Inhibition of the fibrotic process: αSMA staining in TGF-β1 treated LL29 fibroblasts from IPF patients; conditions: Homo sapiens, Fibroblast; for EC50: 96 h; for inhibition at 10 µM: read-out: percentage in parentheses after EC50 >10

SMILES: CN(C)Cc1ccc(C(=O)Nc2ncc3ccc(-c4cnn(C)c4)cc3n2)cc1 [Compound 1077, 4-((Dimethylamino)methyl)-N-(7-(1-methyl-1H-pyrazol-4-yl)quinazolin-2-yl)benzamide]
EC50 [1]: 3400 nM | EC50 (IL-6): 9200 nM | EC50 (GSK3β kinase): 4140 nM | EC50 [2]: 203 nM | EC50 [3]: 1080 nM | EC50 (DYRK1A kinase): 16 nM | EC50 [4]: 3920 nM

SMILES: Cn1cncc1-c1ccc2cnc(NC(=O)c3cccc(CN4CCCC4)c3)nc2c1 [Compound 1356, N-(7-(1-Methyl-1H-imidazol-5-yl)quinazolin-2-yl)-3-(pyrrolidin-1-ylmethyl)benzamide]
EC50 [1]: 8600 nM | EC50 (IL-6): 8060 nM | EC50 (GSK3β kinase): 2780 nM | EC50 [2]: 1100 nM | EC50 [3]: 2570 nM | EC50 (DYRK1A kinase): 5 nM | EC50 [4]: 3600 nM

SMILES: CN(C)Cc1ccc(C(=O)Nc2cc3nc(-c4cnn(C)c4)ccc3cn2)cc1 [Compound 170, 4-((Dimethylamino)methyl)-N-(2-(1-methyl-1H-pyrazol-4-yl)-1,6-naphthyridin-7-yl)benzamide]
EC50 [1]: 3370 nM | EC50 (IL-6): 8090 nM | EC50 (GSK3β kinase): 1870 nM | EC50 [2]: 55 nM | EC50 [3]: 396 nM | EC50 (DYRK1A kinase): 6 nM | EC50 [4]: 1300 nM

SMILES: Cn1cc(-c2cnc3cnc(NC(=O)C4CCN(S(C)(=O)=O)CC4)cc3c2)cn1 [Compound 2792, N-(3-(1-Methyl-1H-pyrazol-4-yl)-1,7-naphthyridin-6-yl)-1-(methylsulfonyl) piperidine-4-carboxamide]
EC50 [1]: > 10000 nM | inhibition at 10 µM [1]: 29% | EC50 (IL-6): > 10000 nM | inhibition at 10 µM (IL-6): 4% | EC50 (GSK3β kinase): 1150 nM | EC50 [2]: 357 nM | EC50 [3]: > 10000 nM | inhibition at 10 µM [3]: 38.1% | EC50 (DYRK1A kinase): 12 nM | EC50 [4]: > 10000 nM | inhibition at 10 µM [4]: 44.8%

SMILES: Cn1cc(-c2cnc3cnc(NC(=O)C4CCN(CC5(C(F)(F)F)CC5)CC4)cc3c2)nn1 [Compound 3067, N-(3-(1-Methyl-1H-1,2,3-triazol-4-yl)-1,7-naphthyridin-6-yl)-1-((1-(trifluoromethyl)cyclopropyl)methyl)piperidine-4-carboxamide]
EC50 [1]: > 10000 nM | inhibition at 10 µM [1]: 42.2% | EC50 (IL-6): > 10000 nM | inhibition at 10 µM (IL-6): 0% | EC50 (GSK3β kinase): 836 nM | EC50 [2]: 3900 nM | EC50 [3]: 4500 nM | EC50 (DYRK1A kinase): 58 nM | EC50 [4]: > 10000 nM | inhibition at 10 µM [4]: 31.7%

SMILES: CN1CCC(Nc2cc(C(=O)Nc3cc4nc(-c5cnn(C)c5)ccc4cn3)ccn2)CC1 [Compound 4538, N-(2-(1-Methyl-1H-pyrazol-4-yl)-1,6-naphthyridin-7-yl)-2-((1-methylpiperidin-4-yl)amino)isonicotinamide]
EC50 [1]: 952 nM | EC50 (IL-6): 3430 nM | EC50 (GSK3β kinase): > 10000 nM | EC50 [2]: 47 nM | EC50 [3]: 278 nM | EC50 (DYRK1A kinase): 3 nM | EC50 [4]: 708 nM

SMILES: CN1CC=C(c2cc(C(=O)Nc3ncc4ccc(-c5cncc(NC(C)(C)C)n5)cc4n3)ccn2)CC1 [Compound 1773, N-(7-(6-(tert-Butylamino)pyrazin-2-yl)quinazolin-2-yl)-1′-methyl-1′,2′,3′,6′-tetrahydro-[2,4′-bipyridine]-4-carboxamide]
EC50 [1]: 95 nM | EC50 (IL-6): > 10000 nM | inhibition at 10 µM (IL-6): 40.7% | EC50 (GSK3β kinase): 995 nM | EC50 [2]: 5 nM | EC50 [3]: 88 nM | EC50 (DYRK1A kinase): 1 nM | EC50 [4]: 163 nM

SMILES: CN1CCc2ccc(C(=O)Nc3ncc4ccc(-c5cnn(C)c5)cc4n3)cc2C1 [Compound 1109, 2-Methyl-N-(7-(1-methyl-1H-pyrazol-4-yl)quinazolin-2-yl)-1,2,3,4-tetrahydroisoquinoline-7-carboxamide]
EC50 [1]: 9480 nM | EC50 (IL-6): > 10000 nM | inhibition at 10 µM (IL-6): 6.3% | EC50 (GSK3β kinase): > 10000 nM | EC50 [2]: 349 nM | EC50 [3]: 1920 nM | EC50 (DYRK1A kinase): 18 nM | EC50 [4]: > 10000 nM | inhibition at 10 µM [4]: 16.4%

SMILES: Cn1cncc1-c1ccc2cnc(NC(=O)c3ccc4c(c3)CNC4)nc2c1 [Compound 1383, N-(7-(1-Methyl-1H-imidazol-5-yl)quinazolin-2-yl)isoindoline-5-carboxamide]
EC50 [1]: > 10000 nM | inhibition at 10 µM [1]: 26.1% | EC50 (IL-6): > 10000 nM | inhibition at 10 µM (IL-6): 3.1% | EC50 (GSK3β kinase): 453 nM | EC50 [2]: 6800 nM | EC50 [3]: > 10000 nM | inhibition at 10 µM [3]: 15.9% | EC50 (DYRK1A kinase): 2 nM | EC50 [4]: 3290 nM

SMILES: CN1CCC(Oc2cccc(C(=O)Nc3ncc4ccc(-c5cnco5)cc4n3)c2)CC1 [Compound 1497, 3-((1-Methylpiperidin-4-yl)oxy)-N-(7-(oxazol-5-yl)quinazolin-2-yl)benzamide]
EC50 [1]: > 10000 nM | inhibition at 10 µM [1]: 23.7% | EC50 (IL-6): > 10000 nM | inhibition at 10 µM (IL-6): 4.8% | EC50 (GSK3β kinase): > 10000 nM | EC50 [2]: 334 nM | EC50 [3]: > 10000 nM | inhibition at 10 µM [3]: 41.7% | EC50 (DYRK1A kinase): 30 nM | EC50 [4]: 2430 nM

SMILES: Cn1cc(-c2ccc3cnc(NC(=O)c4cnn(C5CCNCC5)c4)cc3n2)cn1 [Compound 228, N-(2-(1-Methyl-1H-pyrazol-4-yl)-1,6-naphthyridin-7-yl)-1-(piperidin-4-yl)-1H-pyrazole-4-carboxamide]
EC50 [1]: 105 nM | EC50 (IL-6): 723 nM | EC50 (GSK3β kinase): 753 nM | EC50 [2]: 207 nM | EC50 [3]: 76 nM | EC50 (DYRK1A kinase): 6 nM | EC50 [4]: 376 nM

SMILES: CN(CC(=O)Nc1cc2cc(-c3cnn(C)c3)cnc2cn1)C1CCC1 [Compound 2776, 2-(Cyclobutyl(methyl)amino)-N-(3-(1-methyl-1H-pyrazol-4-yl)-1,7-naphthyridin-6-yl)acetamide]
EC50 [1]: > 10000 nM | inhibition at 10 µM [1]: 8.1% | EC50 (IL-6): > 10000 nM | inhibition at 10 µM (IL-6): 10.4% | EC50 (GSK3β kinase): > 10000 nM | EC50 [2]: 1000 nM | EC50 [3]: 836 nM | EC50 (DYRK1A kinase): 56 nM | EC50 [4]: > 10000 nM | inhibition at 10 µM [4]: 39%

Further lines, with some results ahead:

EC50 [1]: > 10000 nM | EC50 (IL-6): > 10000 nM | EC50 (GSK3β kinase): 828 nM | EC50 [2]: > 10000 nM | EC50 [3]: > 10000 nM | EC50 (DYRK1A kinase): 48 nM
SMILES: CO[C@H]1CC[C@H](C(=O)Nc2cc3cc(-c4nnc(C)s4)ncc3cn2)CC1 [Compound 4332, trans-4-Methoxy-N-(6-(5-methyl-1,3,4-thiadiazol-2-yl)-2,7-naphthyridin-3-yl)cyclohexane-1-carboxamide]
inhibition at 10 µM [1]: 16.5% | inhibition at 10 µM (IL-6): 0% | inhibition at 10 µM [3]: 9.6% | EC50 [4]: > 10000 nM | inhibition at 10 µM [4]: 23.6%

EC50 [1]: 9430 nM | EC50 (IL-6): > 10000 nM | EC50 (GSK3β kinase): 3130 nM | EC50 [2]: 286 nM | EC50 [3]: 2150 nM | EC50 (DYRK1A kinase): 9 nM
SMILES: CN1CCN(c2ccc(C(=O)Nc3ncc4ccc(-c5cnn(C)c5)cc4n3)cn2)CC1 [Compound 1058, N-(7-(1-Methyl-1H-pyrazol-4-yl)quinazolin-2-yl)-6-(4-methylpiperazin-1-yl)nicotinamide]
inhibition at 10 µM (IL-6): 3% | EC50 [4]: > 10000 nM | inhibition at 10 µM [4]: 8.8%

EC50 [1]: > 10000 nM | EC50 (IL-6): > 10000 nM | EC50 (GSK3β kinase): 1160 nM | EC50 [2]: ≥ 10000 nM | EC50 [3]: > 10000 nM | EC50 (DYRK1A kinase): 6 nM
SMILES: Cn1cc(-c2cc3cc(NC(=O)c4ccc5nccnc5c4)ncc3cn2)cn1 [Compound 3843, N-(6-(1-Methyl-1H-pyrazol-4-yl)-2,7-naphthyridin-3-yl)quinoxaline-6-carboxamide]
inhibition at 10 µM [1]: 14% | inhibition at 10 µM (IL-6): 6.8% | inhibition at 10 µM [3]: 25% | EC50 [4]: 1280 nM

EC50 [1]: > 10000 nM | EC50 (IL-6): > 10000 nM | EC50 (GSK3β kinase): 536 nM | EC50 [2]: 6800 nM | EC50 [3]: > 10000 nM | EC50 (DYRK1A kinase): 7 nM
SMILES: O=C(Nc1ncc2ccc(-c3cncc(NC4CCNCC4)n3)cc2n1)C1CCOCC1 [Compound 1783, N-(7-(6-(Piperidin-4-ylamino)pyrazin-2-yl)quinazolin-2-yl)tetrahydro-2H-pyran-4-carboxamide]
inhibition at 10 µM [1]: 38.8% | inhibition at 10 µM (IL-6): 6.1% | inhibition at 10 µM [3]: 14.4% | EC50 [4]: > 10000 nM | inhibition at 10 µM [4]: 53.7%

EC50 [1]: 5300 nM | EC50 (IL-6): > 10000 nM | EC50 (GSK3β kinase): 5600 nM | EC50 [2]: 877 nM | EC50 [3]: 1820 nM | EC50 (DYRK1A kinase): 19 nM
SMILES: Cn1ncc(-c2ccc3cnc(NC(=O)c4ccnc(N5CCOCC5)c4)nc3c2)c1CN1CCOCC1 [Compound 1220, N-(7-(1-Methyl-5-(morpholinomethyl)-1H-pyrazol-4-yl)quinazolin-2-yl)-2-morpholinoisonicotinamide]
inhibition at 10 µM (IL-6): 0% | EC50 [4]: > 10000 nM | inhibition at 10 µM [4]: 5.5%

EC50 [1]: 2900 nM | EC50 (IL-6): 3200 nM | EC50 (GSK3β kinase): 2530 nM | EC50 [2]: 554 nM | EC50 [3]: 323 nM | EC50 (DYRK1A kinase): 13 nM
SMILES: CN1CCC(n2cc(C(=O)Nc3ncc4ccc(-c5cnn(C)c5)cc4n3)cn2)CC1 [Compound 1136, N-(7-(1-Methyl-1H-pyrazol-4-yl)quinazolin-2-yl)-1-(1-methylpiperidin-4-yl)-1H-pyrazole-4-carboxamide]
EC50 [4]: 1460 nM

EC50 [1]: > 10000 nM | EC50 (IL-6): > 10000 nM | EC50 (GSK3β kinase): > 10000 nM | EC50 [2]: 1500 nM | EC50 [3]: > 10000 nM | EC50 (DYRK1A kinase): 40 nM
SMILES: CN1CCC(C(=O)Nc2cc3cc(-c4cnsc4)cnc3cn2)CC1 [Compound 3412, N-(3-(Isothiazol-4-yl)-1,7-naphthyridin-6-yl)-1-methylpiperidine-4-carboxamide]
inhibition at 10 µM [1]: 41.5% | inhibition at 10 µM (IL-6): 2.7% | inhibition at 10 µM [3]: 47.1% | EC50 [4]: > 10000 nM | inhibition at 10 µM [4]: 46.2%
